Laboratory results: patent US9629887B1, “Control of acid reflux with botanicals” (Biotics Research Corporation, priority 2014, dated 2017)
Where a name gives a salt, the structure may show the parent alone.

Tested on: patients with acid reflux / GI tract symptoms
Experiment: Case histories of patients treated with HCl-Ease capsules
Type: in vivo, human
Conditions: previous treatment prescribed elsewhere, patient history
Description: The invention is further illustrated by the following case histories, in which the inventive capsules as described above as the specific embodiment are referred to as HCl-Ease.

| Structure (SMILES) | outcome of other treatment as stated by patient |
| --- | --- |
| C[N+](C)(C)CC(=O)O [Betaine HCL] | greatly increased their symptoms |
| COc1ccc2[nH]c([S+]([O-])Cc3ncc(C)c(OC)c3C)nc2c1 (centres unmarked) [Prilosec] | didn't help much |
